These results are taken from PMC6934184, “Selective DNA-PKcs inhibition extends the therapeutic index of localized radiotherapy and chemotherapy” (The Journal of Clinical Investigation, 2019).

For this experiment, the target named is T1, TYRO3 (RSE) (Homo sapiens, UniProt Q06418).
T1 construct: purchased Thermo Fisher Scientific (Life Technologies) SelectScreen
Briefly: SelectScreen Z'LYTE. The experiment is classed as biochemical. A digest of the protocol: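 NU5455 was profiled across the SelectScreen Broad panel of kinase activity and binding assays. Z'LYTE reactions such as CSF1R ran at apparent Km ATP, while the Adapta CAMK1 assay used ATP listed as 10. Values are given as percent.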

As usually defined, the inhibition is the drop in the measured response relative to a control, in per cent.

T1 sequence (Q06418 41-890): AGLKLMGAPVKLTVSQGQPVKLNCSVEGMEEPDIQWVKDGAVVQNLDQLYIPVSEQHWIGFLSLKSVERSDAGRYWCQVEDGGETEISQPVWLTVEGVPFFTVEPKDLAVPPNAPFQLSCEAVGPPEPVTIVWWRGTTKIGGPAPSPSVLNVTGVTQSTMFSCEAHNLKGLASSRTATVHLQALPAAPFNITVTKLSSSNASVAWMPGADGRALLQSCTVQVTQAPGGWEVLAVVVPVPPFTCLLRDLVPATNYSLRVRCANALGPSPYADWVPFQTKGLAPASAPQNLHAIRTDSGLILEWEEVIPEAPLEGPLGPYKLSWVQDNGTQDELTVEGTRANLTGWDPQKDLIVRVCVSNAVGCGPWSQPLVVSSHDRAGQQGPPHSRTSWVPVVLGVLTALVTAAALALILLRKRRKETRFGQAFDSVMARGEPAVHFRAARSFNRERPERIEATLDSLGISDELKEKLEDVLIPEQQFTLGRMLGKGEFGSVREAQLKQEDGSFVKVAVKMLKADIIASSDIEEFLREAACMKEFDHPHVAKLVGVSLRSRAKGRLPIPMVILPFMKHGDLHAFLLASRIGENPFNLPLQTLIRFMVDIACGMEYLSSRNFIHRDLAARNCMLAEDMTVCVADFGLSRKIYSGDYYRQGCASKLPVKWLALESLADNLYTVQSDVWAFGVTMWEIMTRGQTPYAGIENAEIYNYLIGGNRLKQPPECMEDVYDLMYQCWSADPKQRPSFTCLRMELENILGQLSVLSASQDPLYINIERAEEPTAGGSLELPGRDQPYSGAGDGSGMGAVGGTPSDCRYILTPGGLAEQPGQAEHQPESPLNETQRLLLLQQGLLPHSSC

Turning to `CN(C(=O)CN1CCOCC1)c1ccc2sc3c(-c4cccc5c(=O)cc(N6CC7CCC(C6)O7)oc45)cccc3c2c1` [NU5455], the inhibition at 1 µM was -5.1%.
